Data as given in ChEMBL document CHEMBL1201862, “PubChem BioAssay data set” (2004).
Calls of active or inactive are those of the source.

Experiments:
[1] = target: Sphingosine 1-phosphate receptor 1 (Homo sapiens, UniProt P21453); assay: Fluorescence-based counterscreen assay for S1P4 agonists: Cell-based dose response high throughput screening assay to identify agonists of the Sphingosine 1-Phosphate Receptor 1 (S1P1). [Related pubchem assays (depositor defined):AID1509, AID1523, AID1801, AID463107, AID463118, AID463119, AID463122, AID463123, AID463129, AID463225, AID504400, AID504460]; format: functional
Chain of Sphingosine 1-phosphate receptor 1 (P21453 whole entry): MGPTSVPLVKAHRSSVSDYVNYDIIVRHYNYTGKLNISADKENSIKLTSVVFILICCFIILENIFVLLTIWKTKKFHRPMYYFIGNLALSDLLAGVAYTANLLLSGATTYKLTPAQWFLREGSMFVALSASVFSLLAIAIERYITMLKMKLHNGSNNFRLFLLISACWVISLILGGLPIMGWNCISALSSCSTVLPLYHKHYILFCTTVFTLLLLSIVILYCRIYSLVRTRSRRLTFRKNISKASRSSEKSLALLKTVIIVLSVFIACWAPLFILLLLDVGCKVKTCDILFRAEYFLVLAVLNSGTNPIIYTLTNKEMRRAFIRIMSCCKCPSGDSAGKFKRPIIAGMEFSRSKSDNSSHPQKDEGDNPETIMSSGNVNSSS

[2] = target: T1, Sphingosine 1-phosphate receptor 4 (Homo sapiens, UniProt O95977); assay: Fluorescence dose response cell-based high throughput screening assay for agonists of the Sphingosine 1-Phosphate Receptor 4 (S1P4). [Related pubchem assays: 1509 (Primary screen.), 1523 (Confirmation screen in triplicates.)]; format: functional
T1 sequence (O95977 whole entry): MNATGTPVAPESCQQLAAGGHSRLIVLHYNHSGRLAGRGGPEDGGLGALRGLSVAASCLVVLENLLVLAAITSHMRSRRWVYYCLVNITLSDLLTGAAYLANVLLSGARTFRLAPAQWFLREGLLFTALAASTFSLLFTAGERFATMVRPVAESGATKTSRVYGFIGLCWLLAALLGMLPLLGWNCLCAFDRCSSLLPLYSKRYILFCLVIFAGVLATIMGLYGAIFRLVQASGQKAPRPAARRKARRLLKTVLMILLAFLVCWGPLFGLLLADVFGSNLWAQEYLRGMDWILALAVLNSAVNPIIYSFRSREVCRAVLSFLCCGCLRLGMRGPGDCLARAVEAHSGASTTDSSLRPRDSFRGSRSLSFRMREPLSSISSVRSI

[3] = target: Dual specificity protein phosphatase 6 (Rattus norvegicus, UniProt Q64346); assay: inhibition of rat DUSP6 enzyme activity – biochemical, in vitro, primary screen (AID 425)
[4] = target: T2, Tyrosine-protein phosphatase non-receptor type 22 (Homo sapiens, UniProt Q9Y2R2); assay: inhibition of lymphoid tyrosine phosphatase LYP – biochemical, pCAP fluorogenic substrate, fluorescence, set 3, SAR follow-up (AID 449727); format: functional
T2 sequence (Q9Y2R2 whole entry): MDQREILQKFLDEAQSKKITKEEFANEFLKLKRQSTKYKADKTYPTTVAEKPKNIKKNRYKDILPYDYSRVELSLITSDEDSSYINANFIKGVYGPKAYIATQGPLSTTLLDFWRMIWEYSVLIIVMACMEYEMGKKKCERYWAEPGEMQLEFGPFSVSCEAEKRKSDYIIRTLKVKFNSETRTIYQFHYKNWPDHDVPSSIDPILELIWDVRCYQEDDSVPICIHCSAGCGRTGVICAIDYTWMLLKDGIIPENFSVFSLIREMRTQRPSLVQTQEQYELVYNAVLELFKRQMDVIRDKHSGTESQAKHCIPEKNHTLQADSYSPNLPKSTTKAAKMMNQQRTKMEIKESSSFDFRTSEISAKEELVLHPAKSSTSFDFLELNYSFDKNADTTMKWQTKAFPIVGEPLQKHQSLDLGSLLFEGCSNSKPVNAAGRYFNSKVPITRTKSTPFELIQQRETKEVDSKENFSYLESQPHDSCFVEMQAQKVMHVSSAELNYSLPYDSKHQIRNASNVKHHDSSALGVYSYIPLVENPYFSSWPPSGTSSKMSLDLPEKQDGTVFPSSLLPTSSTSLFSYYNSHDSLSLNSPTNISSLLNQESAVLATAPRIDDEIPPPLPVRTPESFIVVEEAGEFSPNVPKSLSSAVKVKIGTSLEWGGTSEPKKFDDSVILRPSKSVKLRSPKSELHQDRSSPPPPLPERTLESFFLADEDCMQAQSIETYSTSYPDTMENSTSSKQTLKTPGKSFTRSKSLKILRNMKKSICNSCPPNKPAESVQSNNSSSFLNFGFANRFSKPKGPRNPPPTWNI

NS3 = NS3 (Hepatitis C virus, UniProt A3EZJ3); assay: PubChem AID 2173; parameters: species or system Hepacivirus hominis
[5] = target: Tyrosine-protein phosphatase non-receptor type 12 (Homo sapiens, UniProt Q05209); assay: SAR Selectivity Analysis of small molecule inhibitors of PEST using pCAP in a fluorescence assay. [Related pubchem assays (depositor defined):AID1779, AID1784, AID2135]; format: functional
[6] = target: T3, Tyrosine-protein phosphatase non-receptor type 7 (Homo sapiens, UniProt P35236); assay: inhibition of hematopoietic tyrosine phosphatase HePTP – biochemical, set 2, SAR follow-up (AID 449736); format: functional
T3 sequence (P35236 whole entry): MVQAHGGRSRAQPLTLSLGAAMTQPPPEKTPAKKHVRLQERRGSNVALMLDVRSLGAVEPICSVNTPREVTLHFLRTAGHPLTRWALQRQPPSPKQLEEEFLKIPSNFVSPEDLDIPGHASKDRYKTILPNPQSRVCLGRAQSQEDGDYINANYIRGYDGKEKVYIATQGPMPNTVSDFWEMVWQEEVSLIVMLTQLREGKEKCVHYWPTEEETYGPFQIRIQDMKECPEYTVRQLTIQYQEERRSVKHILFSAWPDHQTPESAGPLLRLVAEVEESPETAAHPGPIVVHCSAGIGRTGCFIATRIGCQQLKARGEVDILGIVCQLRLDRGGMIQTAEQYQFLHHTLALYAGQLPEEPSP

[7] = target: T2, Tyrosine-protein phosphatase non-receptor type 22; assay: SAR LYP1 Fluorescent Assay using OMFP substrate for In Vitro dose response studies - Set 3. [Related pubchem assays (depositor defined):AID1779, AID1784, AID2140, AID2686]; format: functional
[8] = target: T4, Dual specificity protein phosphatase 3 (Homo sapiens, UniProt P51452); assay: VHR1 phosphatase inhibitors, biochemical (AID 1878)
T4 sequence (P51452 whole entry): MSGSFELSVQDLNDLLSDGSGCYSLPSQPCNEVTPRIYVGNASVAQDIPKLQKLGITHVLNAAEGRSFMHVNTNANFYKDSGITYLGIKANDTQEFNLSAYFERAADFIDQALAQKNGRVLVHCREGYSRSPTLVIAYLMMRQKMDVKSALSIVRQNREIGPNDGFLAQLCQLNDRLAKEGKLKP

[9] = target: T4, Dual specificity protein phosphatase 3; assay: VHR1 phosphatase inhibitors, primary screen, biochemical, absorbance, uHTS (AID 1654)
[10] = target: T5, Voltage-gated N-type calcium channel alpha-1B subunit/Amyloid beta A4 precursor protein-binding family A member 1 (Homo sapiens, UniProt Q00975+Q02410); format: protein assay
T5 sequence (Q00975 whole entry): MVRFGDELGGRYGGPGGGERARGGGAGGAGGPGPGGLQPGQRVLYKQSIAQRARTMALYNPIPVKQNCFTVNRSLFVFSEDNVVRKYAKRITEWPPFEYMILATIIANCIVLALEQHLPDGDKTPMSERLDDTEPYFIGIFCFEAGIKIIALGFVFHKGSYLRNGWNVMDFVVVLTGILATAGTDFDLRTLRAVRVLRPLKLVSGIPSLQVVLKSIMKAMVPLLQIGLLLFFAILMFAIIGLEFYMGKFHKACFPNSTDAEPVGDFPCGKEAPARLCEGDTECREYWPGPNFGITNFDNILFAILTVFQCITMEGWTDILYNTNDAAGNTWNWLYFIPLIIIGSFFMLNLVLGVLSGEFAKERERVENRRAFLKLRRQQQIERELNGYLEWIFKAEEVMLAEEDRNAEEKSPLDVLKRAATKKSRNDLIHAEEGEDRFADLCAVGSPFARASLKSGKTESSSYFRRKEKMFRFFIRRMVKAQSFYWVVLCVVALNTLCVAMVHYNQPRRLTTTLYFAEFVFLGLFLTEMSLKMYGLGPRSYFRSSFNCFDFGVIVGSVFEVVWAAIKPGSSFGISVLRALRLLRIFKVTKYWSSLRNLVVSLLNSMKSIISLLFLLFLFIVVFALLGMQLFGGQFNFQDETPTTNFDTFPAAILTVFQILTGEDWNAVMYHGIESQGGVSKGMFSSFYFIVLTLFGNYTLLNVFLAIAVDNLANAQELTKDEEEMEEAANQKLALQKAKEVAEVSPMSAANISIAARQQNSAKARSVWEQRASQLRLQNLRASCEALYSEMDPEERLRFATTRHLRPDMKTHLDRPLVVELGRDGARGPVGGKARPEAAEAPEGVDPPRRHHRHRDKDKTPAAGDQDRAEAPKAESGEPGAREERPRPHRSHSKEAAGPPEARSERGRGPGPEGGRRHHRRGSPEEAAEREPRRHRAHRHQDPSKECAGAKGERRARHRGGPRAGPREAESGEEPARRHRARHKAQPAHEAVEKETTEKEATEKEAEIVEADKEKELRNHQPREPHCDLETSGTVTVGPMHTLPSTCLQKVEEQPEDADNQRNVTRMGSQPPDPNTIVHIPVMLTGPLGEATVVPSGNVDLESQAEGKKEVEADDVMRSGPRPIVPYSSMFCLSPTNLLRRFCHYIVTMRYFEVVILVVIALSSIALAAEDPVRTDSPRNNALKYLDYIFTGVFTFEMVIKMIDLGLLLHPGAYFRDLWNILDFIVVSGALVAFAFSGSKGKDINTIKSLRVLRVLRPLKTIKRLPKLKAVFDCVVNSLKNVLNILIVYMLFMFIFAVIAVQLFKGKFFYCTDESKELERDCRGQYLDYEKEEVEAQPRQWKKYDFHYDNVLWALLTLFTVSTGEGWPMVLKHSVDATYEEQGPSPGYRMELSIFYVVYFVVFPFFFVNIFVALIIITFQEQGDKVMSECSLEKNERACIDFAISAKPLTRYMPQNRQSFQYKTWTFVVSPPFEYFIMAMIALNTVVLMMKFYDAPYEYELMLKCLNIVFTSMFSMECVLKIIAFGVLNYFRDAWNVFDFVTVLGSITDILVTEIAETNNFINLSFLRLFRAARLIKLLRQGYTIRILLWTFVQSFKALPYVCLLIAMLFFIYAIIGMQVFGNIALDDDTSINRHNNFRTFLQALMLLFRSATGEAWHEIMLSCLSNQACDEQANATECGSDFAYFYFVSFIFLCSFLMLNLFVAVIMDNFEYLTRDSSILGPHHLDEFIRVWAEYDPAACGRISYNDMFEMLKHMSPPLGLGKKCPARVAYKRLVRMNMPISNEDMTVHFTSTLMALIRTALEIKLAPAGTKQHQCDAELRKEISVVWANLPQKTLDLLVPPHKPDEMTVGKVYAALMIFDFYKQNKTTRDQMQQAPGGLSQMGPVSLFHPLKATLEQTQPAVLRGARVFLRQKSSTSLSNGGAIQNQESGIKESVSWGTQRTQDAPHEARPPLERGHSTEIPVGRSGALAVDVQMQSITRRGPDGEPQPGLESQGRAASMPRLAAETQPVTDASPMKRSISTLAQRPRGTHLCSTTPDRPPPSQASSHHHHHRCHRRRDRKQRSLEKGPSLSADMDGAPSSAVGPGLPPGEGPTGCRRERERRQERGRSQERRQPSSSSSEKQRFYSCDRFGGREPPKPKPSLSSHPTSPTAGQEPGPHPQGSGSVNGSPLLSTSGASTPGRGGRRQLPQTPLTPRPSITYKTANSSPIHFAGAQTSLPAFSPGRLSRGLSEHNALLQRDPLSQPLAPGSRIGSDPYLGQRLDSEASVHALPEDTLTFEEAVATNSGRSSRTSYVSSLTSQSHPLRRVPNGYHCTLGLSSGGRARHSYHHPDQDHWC
T5 sequence (Q02410 whole entry): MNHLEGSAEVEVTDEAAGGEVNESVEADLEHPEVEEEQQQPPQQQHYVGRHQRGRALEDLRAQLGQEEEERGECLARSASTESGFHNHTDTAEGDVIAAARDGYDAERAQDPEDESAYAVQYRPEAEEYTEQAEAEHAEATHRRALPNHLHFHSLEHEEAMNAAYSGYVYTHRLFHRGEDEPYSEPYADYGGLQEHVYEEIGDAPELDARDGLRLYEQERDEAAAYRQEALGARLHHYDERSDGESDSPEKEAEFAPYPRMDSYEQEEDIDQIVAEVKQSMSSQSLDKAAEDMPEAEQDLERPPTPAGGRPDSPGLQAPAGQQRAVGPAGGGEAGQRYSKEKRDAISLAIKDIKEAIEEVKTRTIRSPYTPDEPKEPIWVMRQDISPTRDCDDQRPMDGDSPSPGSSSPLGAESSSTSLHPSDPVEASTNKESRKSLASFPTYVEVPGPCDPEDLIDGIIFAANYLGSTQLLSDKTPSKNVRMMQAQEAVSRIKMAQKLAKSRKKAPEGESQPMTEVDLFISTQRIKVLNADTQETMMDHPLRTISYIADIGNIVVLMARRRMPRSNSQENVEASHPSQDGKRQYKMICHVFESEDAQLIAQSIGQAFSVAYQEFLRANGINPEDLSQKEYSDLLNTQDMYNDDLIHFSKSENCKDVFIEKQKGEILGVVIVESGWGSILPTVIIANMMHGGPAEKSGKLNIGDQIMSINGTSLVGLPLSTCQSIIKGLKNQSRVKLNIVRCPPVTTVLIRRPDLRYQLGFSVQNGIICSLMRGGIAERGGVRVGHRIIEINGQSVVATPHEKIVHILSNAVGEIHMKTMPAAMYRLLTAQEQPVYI

[11] = target: Glyceraldehyde-3-phosphate dehydrogenase (Homo sapiens, UniProt P04406)
[12] = target: T5, Voltage-gated N-type calcium channel alpha-1B subunit/Amyloid beta A4 precursor protein-binding family A member 1; format: protein assay; remark: listed apart in the source
[13] = target: T6, Delta-type opioid receptor (Homo sapiens, UniProt P41143); assay: DOR agonists, SAR follow-up, image-based (AID 2370); format: functional
T6 sequence (P41143 whole entry): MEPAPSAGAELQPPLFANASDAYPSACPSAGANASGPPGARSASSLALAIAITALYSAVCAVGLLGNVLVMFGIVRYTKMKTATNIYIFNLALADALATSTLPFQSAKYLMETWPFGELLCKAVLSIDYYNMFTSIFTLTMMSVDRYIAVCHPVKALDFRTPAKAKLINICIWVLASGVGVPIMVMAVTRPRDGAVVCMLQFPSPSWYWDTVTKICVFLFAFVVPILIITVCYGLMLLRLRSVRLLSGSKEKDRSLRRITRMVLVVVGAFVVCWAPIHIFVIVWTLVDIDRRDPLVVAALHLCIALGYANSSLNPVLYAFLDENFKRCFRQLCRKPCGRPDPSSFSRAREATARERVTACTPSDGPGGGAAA

[14] = target: T7, Kappa-type opioid receptor (Homo sapiens, UniProt P41145); assay: kappa opioid receptor blockers, image-based, SAR follow-up (AID 2348); format: functional
T7 sequence (P41145 whole entry): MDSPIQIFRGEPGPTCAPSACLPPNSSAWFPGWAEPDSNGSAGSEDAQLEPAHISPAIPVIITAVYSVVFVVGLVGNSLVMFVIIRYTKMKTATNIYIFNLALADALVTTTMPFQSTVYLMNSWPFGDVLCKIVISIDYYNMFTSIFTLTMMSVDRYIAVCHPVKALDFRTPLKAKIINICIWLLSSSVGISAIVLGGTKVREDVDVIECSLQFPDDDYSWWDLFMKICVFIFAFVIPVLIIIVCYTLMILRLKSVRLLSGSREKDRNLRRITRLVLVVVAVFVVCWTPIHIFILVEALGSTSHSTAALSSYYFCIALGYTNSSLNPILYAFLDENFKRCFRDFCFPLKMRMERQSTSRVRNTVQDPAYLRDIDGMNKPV

Mu-type opioid receptor [15] = target: T8, Mu-type opioid receptor (Homo sapiens, UniProt P35372); assay: mu opioid receptor blockers – image-based, SAR follow-up (AID 2420); format: functional;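 also: compounds added before stimulation of receptor with agonist DAMGO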
T8 sequence (P35372 whole entry): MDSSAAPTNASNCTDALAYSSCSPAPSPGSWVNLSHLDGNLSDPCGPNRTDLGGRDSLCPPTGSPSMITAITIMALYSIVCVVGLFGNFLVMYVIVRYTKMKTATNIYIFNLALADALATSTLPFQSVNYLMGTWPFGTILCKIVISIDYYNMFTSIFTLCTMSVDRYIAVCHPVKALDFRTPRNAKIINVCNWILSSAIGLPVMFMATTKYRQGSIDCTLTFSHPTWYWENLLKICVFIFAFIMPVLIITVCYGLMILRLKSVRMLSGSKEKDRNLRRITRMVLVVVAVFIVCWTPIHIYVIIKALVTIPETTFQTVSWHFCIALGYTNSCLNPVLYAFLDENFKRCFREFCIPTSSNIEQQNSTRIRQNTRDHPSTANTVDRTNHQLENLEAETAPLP

Mu-type opioid receptor [16] = target: T8, Mu-type opioid receptor; assay: mu opioid receptor activators, image-based, SAR follow-up (AID 2352); format: functional
[17] = target: T7, Kappa-type opioid receptor; assay: kappa opioid receptor activation potency – imaging, image-based, SAR follow-up (AID 2359); format: functional
[18] = target: T7, Kappa-type opioid receptor; assay: SAR analysis of small molecule agonists of the kappa opioid receptor via a luminescent beta-arrestin assay. [Related pubchem assays (depositor defined):AID1777, AID1786, AID1966, AID2133, AID2136, AID2348, AID2352, AID2357, AID2359, AID2370, AID2420, AID2478, AID2491, AID2492, AID2493, AID2497, AID2498, AID2500, AID449737, AID488822, AID488842]; format: functional
[19] = target: T6, Delta-type opioid receptor; assay: delta opioid receptor blockers – image-based, SAR follow-up (AID 2357); format: functional
CAAX prenyl protease 1 = CAAX prenyl protease 1 (Saccharomyces cerevisiae S288c, UniProt P47154); assay: yeast CAAX protease Ste24 inhibition – biochemical, S. cerevisiae, plate reader, cherry-pick, dose response (AID 488815)
[20] = bead-based luminescence quenchers, dual-tagged ARNT – biochemical, AlphaScreen, cherry-pick, artefact control for ARNT-TACC3 interaction inhibitor project, dose response (AID 651705); format: functional;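 also: AlphaScreen bead proximity signal that flags compounds interfering with the detection technology; potency reflects signal decrease which marks the compound as an assay artifact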
[21] = target: Lysine-specific demethylase 4A (Homo sapiens, UniProt O75164); assay: inhibition of JMJD2A H3K9me3 demethylation – biochemical, DELFIA europium, cherry-picked samples, selectivity assay for GASC-1 inhibitor project, dose response (AID 488840)
[22] = target: Lysine-specific demethylase 4C (Homo sapiens, UniProt Q9H3R0); assay: inhibition of JMJD2C H3K9me3 demethylation – biochemical, DELFIA europium, cherry-picked samples, dose response (AID 488835); format: functional
Mu-type opioid receptor [23] = target: T8, Mu-type opioid receptor; assay: SAR Analysis of Agonists of the MOR Receptor using an Image-Based Assay - Set 3. [Related pubchem assays (depositor defined):AID1777, AID1785, AID1786, AID1966, AID2133, AID2136, AID2284, AID2285, AID2352]; format: functional
[24] = target: T6, Delta-type opioid receptor; assay: SAR Analysis of Agonists of the DOR Receptor using an Image-Based Assay - Set 3. [Related pubchem assays (depositor defined):AID1777, AID1786]; format: functional
[25] = target: T7, Kappa-type opioid receptor; assay: SAR analysis of small molecule agonists of the kappa opioid receptor via a luminescent beta-arrestin assay - Set 3. [Related pubchem assays (depositor defined):AID1777, AID1785, AID1786, AID1966, AID2133, AID2136, AID2284, AID2500]; format: functional
[26] = target: T7, Kappa-type opioid receptor; assay: kappa opioid receptor activation by imaging – image-based, set 3, SAR follow-up (AID 488833); format: functional
[27] = target: T9, Ubiquitin-conjugating enzyme E2 N (Homo sapiens, UniProt P61088); format: functional
T9 sequence (P61088 whole entry): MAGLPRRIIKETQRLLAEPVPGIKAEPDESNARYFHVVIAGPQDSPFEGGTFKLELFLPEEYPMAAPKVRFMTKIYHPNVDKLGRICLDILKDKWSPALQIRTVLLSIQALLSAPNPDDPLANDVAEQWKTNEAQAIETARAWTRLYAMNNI

Exodeoxyribonuclease V = Exodeoxyribonuclease V (Escherichia coli (strain K12), UniProt P04993+P07648+P08394); assay: RecBCD inhibition via phage-restricted bacterial growth – absorbance, V66 E. coli, mutant T4 phage, counter-screen for AddAB inhibitor project, dose response (AID 492957); format: functional, cell-based, Escherichia coli str. K-12 substr. MG1655
[28] = target: T9, Ubiquitin-conjugating enzyme E2 N; format: functional; remark: listed apart in the source
INS1 = assay: INS-1E survival protection against cytokine death – cell-based, luminescence, retest, dose response (AID 449756); format: functional; conditions: Rattus norvegicus;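 also: cell death triggered by IL-1 beta plus TNF-alpha plus IFN-gamma mixture; protective hits raise ATP signal compared with cytokine alone wells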
[29] = Counterscreen for AddAB inhibitors: absorbance-based bacterial cell-based high throughput dose response assay for inhibitors of bacterial viability. [Related pubchem assays (depositor defined):AID435030, AID449728, AID449731, AID488942, AID488955, AID488956]; format: functional
Bcl-2-related protein A1 = target: T10, Bcl-2-related protein A1 (Mus musculus, UniProt Q07440); format: functional;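 also: confirmatory dose–response counterscreen on Bfl-1, used to check hits from a UBC13 polyubiquitin inhibitor campaign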
T10 sequence (Q07440 whole entry): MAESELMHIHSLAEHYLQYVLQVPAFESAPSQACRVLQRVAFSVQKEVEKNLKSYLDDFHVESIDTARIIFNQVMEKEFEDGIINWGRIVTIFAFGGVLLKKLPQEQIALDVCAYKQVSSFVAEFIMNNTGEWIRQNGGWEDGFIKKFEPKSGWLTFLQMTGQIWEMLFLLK

SMILES: Clc1ccc(C2=NN(c3ccccc3)C(c3ccco3)C2)cc1 (centres undefined)
- EC50 [1]: > 5.53 µM (inactive)
- EC50 [2]: > 16.6 µM (not active)

SMILES: O=C(O)CCN1C(=O)/C(=C2\C(=O)N(Cc3ccccc3Cl)c3ccccc32)SC1=S
- IC50 [3]: 30.9 µM (active)
- IC50 [4]: 1.91 µM (active)
- IC50 (NS3): 3.06 µM (active)
- IC50 [5]: 2.03 µM (active)
- IC50 [6]: 0.549 µM (active)
- IC50 [7]: 2.88 µM (active)
- IC50 [8]: < 1.23 µM (inactive)
- IC50 [9]: 3.2 µM (active)
- IC50 [10]: > 50 µM (inactive)
- IC50 [11]: > 100 µM (not active)
- IC50 [12]: 9.81 µM (active)

SMILES: O=C(c1cnccn1)N(Cc1cccs1)C1(C(=O)NC2CCCCC2)CCCCC1
- EC50 [13]: > 32 µM (inactive)
- IC50 [14]: > 32 µM (inactive)
- IC50 (Mu-type opioid receptor [15]): > 32 µM (inactive)
- EC50 (Mu-type opioid receptor [16]): > 32 µM (inactive)
- EC50 [17]: 0.141 µM (active)
- EC50 [18]: 0.444 µM (active)
- IC50 [19]: > 32 µM (inactive)

SMILES: CCOC(=O)c1cc(C)nc(O)c1C#N
- AC50 (CAAX prenyl protease 1): 12.3 µM (active)

SMILES: O=C(Nc1nnc(-c2ccco2)o1)c1ccc(N2C(=O)CCC2=O)cc1
- AC50 [20]: 126 µM (active)
- AC50 [21]: 13.9 µM (active)
- AC50 [22]: 14.7 µM (active)

SMILES: O=[N+]([O-])c1ccc(CSc2nnc(-c3ccccn3)n2Cc2ccco2)cc1
- EC50 (Mu-type opioid receptor [23]): > 32 µM (inactive)
- EC50 [24]: > 64 µM (inactive)
- EC50 [25]: 2.48 µM (active)
- EC50 [26]: 2.35 µM (active)

SMILES: CCC[C@@H](CN1CCC[C@H]1CN1C(N)=NC[C@@H]1Cc1ccccc1)N1C[C@@H]([C@H](C)CC)N(CCCC2CCCC2)C1=N
- IC50 [27]: 8.52 µM (active)
- IC50 (Exodeoxyribonuclease V): 15.2 µM (inactive)
- IC50 [28]: 10.9 µM (active)
- AC50 (INS1): 7.33 µM (active)
- IC50 [29]: 17.5 µM (inactive)
- IC50 (Bcl-2-related protein A1): > 20 µM (inactive)
